Measured values from patent US20100120700A1, “METHODS AND COMPOSITIONS FOR TREATING CERVICAL CANCER” (priority 2000, published 2010).
“And” between values parts separate entries of the source, which are not always exact repeats. Equal values may be shown once.

Tests used:
Assay in all cases: G assay PDZ-PL binding
KIAA0147 domain 4 = molecular target: T1, KIAA0147 domain 4 (Homo sapiens, UniProt Q14160); settings: peptide 10 uM, protein 5
T1 construct: made in house; host or cells: E. coli (DH5alpha, BL21 or JM109)
Description: (§1) (1) A PDZ-domain polypeptide is bound to a surface, e.g. a protein binding surface. In a preferred embodiment, a GST/PDZ fusion protein containing one or more PDZ domains is bound to a polystyrene 96-well plate. […] In one embodiment, the GST/PDZ fusion protein is bound via an anti-GST antibody that is coated onto the 96-well plate. Adequate binding to the plate can be achieved when: • a. 100 uL per well of 5 ug/mL goat anti-GST polyclonal antibody (Pierce) in PBS is added to a polystyrene 96-well plate (e.g., Num Polysorb) at 4° C. for 12 hours. • b. The plate is blocked by addition of 200 uL per well of PBS/BSA for 2 hours at 4° C. • c. The plate is washed 3 times with PBS. • d. 50 uL per well of 5 ug/mL GST/PDZ fusion protein) or, as a negative control, GST polypeptide alone (i.e. not a fusion protein) in PBS/BSA is added to the plate for 2 hours at 4° C. • e. The plate is again washed 3 times with PBS. […]
(§2) (3) The binding of the biotinylated peptide to the GST/PDZ fusion protein surface can be detected using a variety of methods and detectors known to one of skill in the art. In one embodiment, 100 uL per well of 0.5 ug/mL streptavidin-horse radish peroxidase (HRP) conjugate dissolved in BSA/PBS is added and allowed to react for 20 minutes at 4° C. The plate is then washed 5 times with 50 mM Tris pH 8.0 containing 0.2% Tween 20, and developed by addition of 100 uL per well of HRP-substrate solution (TMB, Dako) for 20 minutes at room temperature (RT). The reaction of the HRP and its substrate is terminated by addition of 100 uL per well of 1M sulfuric acid, and the absorbance of each well of the plate is read at 450 nm.
(§3) (4) Specific binding of a PL peptide and a PDZ domain polypeptide is determined by comparing the signal from the well(s) in which the PL peptide and PDZ domain polypeptide are combined, with the background signal(s). The background signal is the signal found in the negative control(s). Typically a specific or selective reaction will be at least twice background signal, more typically more than 5 times background, and most typically 10 or more times the background signal. In addition, a statistically significant reaction will involve multiple measurements of the reaction with the signal and the background differing by at least two standard errors, more typically four standard errors, and most typically six or more standard errors. Correspondingly, a statistical test (e.g. a T-test) comparing repeated measurements of the signal with-repeated measurements of the background will result in a p-value<0.05, more typically a p-value<0.01, and most typically a p-value<0.001 or less. As noted, in an embodiment of the “G” assay, the signal from binding of a given PL peptide to immobilized (surface bound) GST polypeptide alone is one suitable negative control (sometimes referred to as “B 1”). Because all measurement are done in multiples (i.e. at least duplicate) the arithmetic mean (or, equivalently, average.) of several measurements is used in determining the binding, and the standard error of the mean is used in determining the probable error in the measurement of the binding. The standard error of the mean of N measurements equals the square root of the following: the sum of the squares of the difference between each measurement and the mean, divided by the product of (N) and (N−1). Thus, in one embodiment, specific binding of the PDZ protein to the platebound peptide is determined by comparing the mean signal (“mean S”) and standard error of the signal (“SE”) for a particular PL-PDZ combination with the mean B1.
(§4) For convenience, the assay conditions described in this section are referred to as the “G’ assay” and the “G” assay,” with the specific conditions described in the preceding section on G assays being referred to as the “G° assay.” The “G′ assay” is identical to the “G° assay” except at step (2) the peptide concentration is 10 uM instead of 20 uM. […]

KIAA0147 domain 3 = molecular target: T2, KIAA0147 domain 3 (Homo sapiens, UniProt Q14160); settings: A450 nm, peptide 10 uM, protein 5
T2 construct: made in house; host or cells: E. coli (DH5alpha, BL21 or JM109)
Description: as §1, §2, §3, §4

KIAA1719 domain 5 = molecular target: T3, KIAA1719 domain 5 (Homo sapiens, UniProt Q9C0E4); settings: peptide 10 uM, protein 5
T3 construct: made in house; host or cells: E. coli (DH5alpha or BL-21)
Description: as §1, §2, §3, §4

Numb BP domain 1 = molecular target: T4, Numb BP domain 1 (Homo sapiens, UniProt Q8TBB1); settings: peptide 10 uM, protein 5
T4 construct: made in house; host or cells: E. coli (DH5alpha, BL21 or JM109)
Description: as §1, §2, §3, §4

TIAM 2 domain 1 = molecular target: T5, TIAM 2 domain 1 (Homo sapiens, UniProt Q8IVF5); settings: peptide 10 uM, protein 5
T5 construct: made in house; host or cells: E. coli (DH5alpha, BL21 or JM109)
Description: as §1, §2, §3, §4

KIAA0380 #25.6 domain 1 = molecular target: T6, KIAA0380 #25.6 domain 1 (Homo sapiens, UniProt O15085); settings: vs GST only well, peptide 10 uM, protein 5
T6 construct: made in house; host or cells: E. coli (DH5alpha, BL21 or JM109), vector pGEX-3X
Description: as §1, §2, §3, §4

KIAA1634 domain 5 = molecular target: T7, KIAA1634 domain 5 (Homo sapiens, UniProt Q5TCQ9); settings: peptide 10 uM, protein 5
T7 construct: made in house; host or cells: E. coli (DH5alpha or BL-21)
Description: as §1, §2, §3, §4

[1] = molecular target: T8, Syntrophin gamma 2 domain 1 (Homo sapiens, UniProt Q9NY99); settings: peptide 10 uM, protein 5
T8 construct: made in house; host or cells: E. coli (DH5alpha, BL21 or JM109), vector pGEX-3X
Description: as §1, §2, §3, §4

DLG2 domain 1 = molecular target: T9, DLG2 domain 1 (Homo sapiens, UniProt Q15700); settings: peptide 10 uM, protein 5
T9 construct: made in house; host or cells: E. coli (DH5alpha, BL21 or JM109), vector pGEX-3X
Description: as §1, §2, §3, §4

TIP 43 #264.1 domain 1 = molecular target: T10, TIP 43 #264.1 domain 1 (Homo sapiens, UniProt Q13884); settings: vs GST only well, peptide 10 uM, protein 5
T10 construct: made in house; host or cells: E. coli (DH5alpha, BL21 or JM109)
Description: as §1, §2, §3, §4

TIP1 domain 1 = molecular target: T11, TIP1 domain 1 (Homo sapiens, UniProt O14907); settings: vs GST only well, peptide 10 uM, protein 5
T11 construct: made in house; host or cells: E. coli (DH5alpha, BL21 or JM109)
Description: as §1, §2, §3, §4

Shank 3 domain 1 = molecular target: T12, Shank 3 domain 1 (Homo sapiens, UniProt Q9BYB0); settings: peptide 10 uM, protein 5
T12 construct: made in house; host or cells: E. coli (DH5alpha or BL-21)
Description: as §1, §2, §3, §4

MAGI 1 domain 2 = molecular target: T13, MAGI 1 domain 2 (Homo sapiens, UniProt Q96QZ7)
T13 construct: made in house; host or cells: E. coli (DH5alpha, BL21 or JM109)
Description: as §1, §2, §3, §4

FLJ11215 domain 1 = molecular target: T14, FLJ11215 domain 1 (Homo sapiens, UniProt Q9NUP9); settings: peptide 10 uM, protein 5
T14 construct: made in house; host or cells: E. coli (DH5alpha, BL21 or JM109), vector pGEX-3X
Description: as §1, §2, §3, §4

T1 sequence (Q14160 1099-1203): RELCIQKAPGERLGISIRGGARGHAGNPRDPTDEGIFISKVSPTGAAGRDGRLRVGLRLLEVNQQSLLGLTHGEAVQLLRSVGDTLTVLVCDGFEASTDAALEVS
T8 sequence (Q9NY99 65-163): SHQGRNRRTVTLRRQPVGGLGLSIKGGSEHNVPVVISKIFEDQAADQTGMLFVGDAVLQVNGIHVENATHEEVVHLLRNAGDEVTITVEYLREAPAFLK
T13 sequence (Q96QZ7 463-566): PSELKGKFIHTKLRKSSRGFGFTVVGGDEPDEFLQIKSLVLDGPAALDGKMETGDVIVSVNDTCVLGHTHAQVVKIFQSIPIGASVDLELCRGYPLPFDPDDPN
T14 sequence (Q9NUP9 86-182): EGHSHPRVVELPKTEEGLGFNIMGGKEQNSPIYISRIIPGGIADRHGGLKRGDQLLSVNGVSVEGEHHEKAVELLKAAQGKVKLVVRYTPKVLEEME
T10 sequence (Q13884 106-201): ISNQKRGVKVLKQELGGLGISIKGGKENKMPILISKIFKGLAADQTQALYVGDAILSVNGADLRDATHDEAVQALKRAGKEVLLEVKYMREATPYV
T12 sequence (Q9BYB0 638-747): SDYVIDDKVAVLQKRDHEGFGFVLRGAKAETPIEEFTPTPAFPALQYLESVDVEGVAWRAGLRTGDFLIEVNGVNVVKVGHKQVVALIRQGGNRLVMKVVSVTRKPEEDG
T7 sequence (Q5TCQ9 1040-1137 isoform Q5TCQ9-2): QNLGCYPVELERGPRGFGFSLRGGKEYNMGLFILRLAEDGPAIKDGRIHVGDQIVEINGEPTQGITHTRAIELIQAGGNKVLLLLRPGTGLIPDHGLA
T3 sequence (Q9C0E4 with tags, fused parts or gaps): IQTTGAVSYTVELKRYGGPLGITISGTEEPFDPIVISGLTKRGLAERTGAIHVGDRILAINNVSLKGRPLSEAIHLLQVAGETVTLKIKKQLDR
T11 sequence (O14907 14-116): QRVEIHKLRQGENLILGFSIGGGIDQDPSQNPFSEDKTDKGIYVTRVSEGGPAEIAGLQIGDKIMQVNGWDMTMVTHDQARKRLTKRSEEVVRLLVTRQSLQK
T2 sequence (Q14160 with tags, fused parts or gaps): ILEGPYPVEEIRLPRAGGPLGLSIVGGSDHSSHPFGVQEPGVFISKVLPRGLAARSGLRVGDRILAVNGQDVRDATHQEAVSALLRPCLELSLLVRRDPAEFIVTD
T5 sequence (Q8IVF5 885-981): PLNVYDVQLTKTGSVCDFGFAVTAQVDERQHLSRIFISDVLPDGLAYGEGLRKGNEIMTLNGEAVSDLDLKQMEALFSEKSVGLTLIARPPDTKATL
T4 sequence (Q8TBB1 with tags, fused parts or gaps): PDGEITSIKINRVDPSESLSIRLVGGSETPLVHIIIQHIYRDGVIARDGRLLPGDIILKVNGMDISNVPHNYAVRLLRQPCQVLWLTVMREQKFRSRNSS
T6 sequence (O15085 45-123): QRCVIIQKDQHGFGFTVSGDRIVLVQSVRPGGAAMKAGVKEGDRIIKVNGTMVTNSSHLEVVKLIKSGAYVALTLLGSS

For “20 mer peptide corresponding to the C-terminus of HPV16 E6 (PDZ ligand), biotinylated in binding assays; ends SSRTRRETQL (SEQ ID NO: 13) [HPV E6 #16]”, the “Ave OD” value (KIAA0147 domain 4; A450 nm) was 0.464 and 0.3795, the “OD S/N” value (KIAA0147 domain 4; vs GST only well) was 2.17 and 2.34 and the “Ave OD” value (KIAA0147 domain 3) was 2.0785 and 1.072. The “Ave OD” value (KIAA1719 domain 5; A450 nm) was 0.3895, the “OD S/N” value (KIAA1719 domain 5; vs GST only well) was 1.81 and the “Ave OD” value (Numb BP domain 1; A450 nm) was 0.352. For the same substance, the “OD S/N” value (Numb BP domain 1; vs GST only well) was 3.17, the “Ave OD” value (TIAM 2 domain 1; A450 nm) was 0.356 and the “OD S/N” value (TIAM 2 domain 1; vs GST only well) was 2.05. The “OD S/N” value (KIAA0380 #25.6 domain 1) was 1.95 and 3.06, the “Ave OD” value (KIAA1634 domain 5; A450 nm) was 0.4025 and the “OD S/N” value (KIAA1634 domain 5; vs GST only well) was 2.07. For the same substance, the “Ave OD” value ([1]; A450 nm) was 0.469 and 0.7725, the “OD S/N” value ([1]; vs GST only well) was 2.76 and 3.13 and the “Ave OD” value (DLG2 domain 1; A450 nm) was 0.793. For the same substance, the “OD S/N” value (DLG2 domain 1; vs GST only well) was 3.59, the “OD S/N” value (TIP 43 #264.1 domain 1) was 8.50 and 8.76 and the “OD S/N” value (TIP1 domain 1) was 8.24 and 5.67. The “Ave OD” value (Shank 3 domain 1; A450 nm) was 0.396, the “OD S/N” value (Shank 3 domain 1; vs GST only well) was 2.61 and the “Ave OD” value (MAGI 1 domain 2; A450 nm, MAGI 1 domain 2, peptide 10 uM, protein 5) was 4.1125. The “binding to MAGI-1 second PDZ domain (qualitative)” value (MAGI 1 domain 2; G assay / Matrix TM assay, called MAGI 1 domain 1 in b521 (nomenclature b497)) was “bound with the highest relative affinity”, the “OD S/N” value (MAGI 1 domain 2; vs GST only well, MAGI 1 domain 2, peptide 10 uM, protein 5) was 19.54 and the “Ave OD” value (FLJ11215 domain 1; A450 nm) was 0.449 and 0.666. The “OD S/N” value (FLJ11215 domain 1; vs GST only well) was 2.77 and 2.74.
